Results reported in patent publication US9382245B2, “Compounds and methods for treating HIV infections” (priority 2013, dated 2016).
Read-outs that look alike come from different tables or passages of the source. Marks after values point to notes of the source that are not given here.

Key:
[1] = Aqueous solubility, shake-flask procedure; type: physicochemical; details: for solubility at 48 h: Britton-Robinson buffer, 25 °C, pH 6.5, aqueous buffer, thermodynamic from solid
Protocol: Poor solubility, which has been a problem for many NNRTIs, often leads too low bioavailability, difficulties in formulation, and high dosages.^6,32,33 The issue reflects the hydrophobic nature of the NNRTI binding site. In the design of the catechol diethers, attention was paid to having both good potency and aqueous solubility. In our laboratory, solubilities are measured using a shake-flask procedure.^6,34 The compounds are dissolved in Britton-Robinson buffer and stirred in vials for 48 hours at 25° C. The pH of the buffer solutions is 6.5 as measured by a Corning General Purpose pH Combination probe (4136L21).

[2] = tested on: IIIB strain of HIV-1 (wild-type); test: microbe, parasite or virus in culture; type: cell-based
[3] = Table 2, cited from earlier work
[4] = Table 2, pH 6.5, Britton-Robinson buffer, 48 hours at 25° C., read-out: S, aqueous solubility

Row | SMILES | CC50 (human MT-2 T-cells; human) [µM] | CC50 (in vitro; human) [µM] | also measured
1 | N#C/C=C/c1cc(Cl)cc(Oc2ccccc2OCCn2ccc(=O)[nH]c2=O)c1 [1c, (E)-3-(3-chloro-5-(2-(2-(2,4-dioxo-3,4-dihydropyrimidin-1(2H)-yl)ethoxy)phenoxy)phenyl)acrylonitrile] | 18 |  | solubility at 48 h [1, 4]: 510 µg/mL; solubility at 48 h ([1]; shake-flask, pH 6.5, read-out: aqueous solubility): 510 µg/mL
2 | N#Cc1cc2c(Oc3ccccc3OCCn3ccc(=O)[nH]c3=O)cccn2c1 [10b, 8-(2-(2-(2,4-dioxo-3,4-dihydropyrimidin-1(2H)-yl)ethoxy)phenoxy)indolizine-2-carbonitrile] | > 100 | > 100 | 
3 | N#Cc1cc2cccc(Oc3ccc(F)cc3OCCn3ccc(=O)[nH]c3=O)n2c1 [11a, 5-(2-(2-(2,4-dioxo-3,4-dihydropyrimidin-1(2H)-yl)ethoxy)-4-fluorophenoxy)indolizine-2-carbonitrile] |  | > 100 | fold less active, WT ([2]; 11a compared with its isomer 10f): 6 fold
4 | N#Cc1cc2c(Oc3ccccc3OCCn3ccc(=O)[nH]c3=O)cccc2o1 [12a, 4-(2-(2-(2,4-dioxo-3,4-dihydropyrimidin-1(2H)-yl)ethoxy)phenoxy)benzofuran-2-carbonitrile] | > 100 | > 100 | 
5 | N#Cc1cc2c(Oc3ccccc3OCCn3ccc(=O)[nH]c3=O)cc(Cl)cc2o1 [12c, 6-chloro-4-(2-(2-(2,4-dioxo-3,4-dihydropyrimidin-1(2H)-yl)ethoxy)phenoxy)benzofuran-2-carbonitrile] | > 100 | > 100 | 
6 | N#Cc1cc2c(Oc3ccc(F)cc3OCCn3ccc(=O)[nH]c3=O)cccc2o1 [12d, 4-(2-(2-(2,4-dioxo-3,4-dihydropyrimidin-1(2H)-yl)ethoxy)-4-fluorophenoxy)benzofuran-2-carbonitrile] | > 100 | > 100 | 
7 | O=c1ccn(CCOc2ccccc2Oc2cccc3ccccc23)c(=O)[nH]1 [14a, 1-(2-(2-(naphthalen-1-yloxy)phenoxy)ethyl)pyrimidine-2,4(1H,3H)-dione] | 80 |  | fold less active, WT ([2]; 14a compared with 14e): 100 fold
8 | N#Cc1ccc2c(Oc3ccccc3OCCn3ccc(=O)[nH]c3=O)cccc2c1 [14e, 5-(2-(2-(2,4-dioxo-3,4-dihydropyrimidin-1(2H)-yl)ethoxy)phenoxy)-2-naphthonitrile] | > 100 | > 100 | fold less soluble ([1]; 14e compared with indolizine 10b): 10 fold; fold improvement in solubility ([1]; 14e over etravirine and rilpivirine): ca. 40 fold; solubility at 48 h [1, 4]: 4.3 µg/mL
9 | N#Cc1ccc2c(Oc3ccc(F)cc3OCCn3ccc(=O)[nH]c3=O)cccc2c1 [14i, 5-(2-(2-(2,4-dioxo-3,4-dihydropyrimidin-1(2H)-yl)ethoxy)-4-fluorophenoxy)-2-naphthonitrile] | > 100 | > 100 | 
10 | N#Cc1ccc2c(Oc3ccccc3OCCn3ccc(=O)[nH]c3=O)cc(F)cc2c1 [14k, 5-(2-(2-(2,4-dioxo-3,4-dihydropyrimidin-1(2H)-yl)ethoxy)phenoxy)-7-fluoro-2-naphthonitrile] | > 100 | > 100 | 
11 | N#Cc1ccc2c(Oc3ccc(F)cc3OCCn3ccc(=O)[nH]c3=O)cc(F)cc2c1 [14l, 5-(2-(2-(2,4-dioxo-3,4-dihydropyrimidin-1(2H)-yl)ethoxy)-4-fluorophenoxy)-7-fluoro-2-naphthonitrile] | > 100 | > 100 | 
12 | O=C1Nc2ccc(Cl)cc2[C@@](C#CC2CC2)(C(F)(F)F)O1 [efavirenz, reference compound] |  |  | EC50 ([2]; Human immunodeficiency virus 1, IIIB, MT2, read-out: WT EC50): 2 nM
13 | Cc1cc(C#N)cc(C)c1Oc1nc(Nc2ccc(C#N)cc2)nc(N)c1Br [etravirine] |  |  | S, aqueous solubility ([3]; Ref. 36): <<1^b μg/mL
14 | Cc1ccnc2c1NC(=O)c1cccnc1N2C1CC1 [nevirapine, reference compound] |  |  | CC50 (human MT-2 T-cells; Table 3, 50% inhibition of MT-2 cell growth): > 100 µM; CC50 (human MT-2 T-cells; Table 4, 50% inhibition of MT-2 cell growth): > 100 µM; S, aqueous solubility ([3]; Ref. 35): 167^a μg/mL; CC50 (in vitro): > 100 µM
